Measured values from patent publication US7091243B2, “Anti-irritants” (Croda, Inc., priority 2001, dated 2006).

Key:
[1] = test system: MDCK (Kidney, Canine) strain NBL-2 cells; assay: Trans-Epithelial Permeability (TEP) Assay, intracellular leakage of sodium fluorescein; type: cell-based; details: for anti-irritating activity: 3% ester in shampoo base, Table 7; for anti-irritating activity, comparison between esters: referring to Table 4, 5% ester
From the text: The test methodology for measuring the irritation potential of alkoxylated esters is Trans-Epithelial Permeability (TEP) Assay. The TEP Assay measures intracellular leakage of a suitable marker reagent, such as sodium fluorescein, through cells that were exposed to irritant-containing compositions. Smaller leakage indicates lower degree of cell damage. If the cells are exposed to an irritant-containing composition with and without an anti-irritant, the magnitude of reduction in the intracellular leakage measures the anti-irritating ability of the anti-irritant. For additional discussion of the TEP Assay, see Tchao, R., Trans-Epithelial Permeability of Fluorescein In Vitro As An Assay To Determine Eye Irritants, Progress in In Vitro Toxicology, A M Goldberg ed., 6:271–283 (1988); Drewitt-Barlow, B., McPherson, J., Broyd, J. and Williamson, 2000. No Tears for Baby. Global Cosmetic Industry, (October, 2000): 16–20; Burke, J. and Joseph, L. B., 2000, In Vitro Analysis of the Irritation Mitigating Properties of PEG-150 Pentaerythrityl Tetrastearate, Society of Cosmetic Chemists, 2000 Technology Showcase, NY, N.Y., all of which are incorporated by reference herein.
The ingredients were dissolved in distilled water and pH was adjusted to 6.8 to 7.2. Sodium laurel ether sulfate (triethoxylated) is a known irritant. The irritation potentials of the compositions I, II, III and IV were measured using the TEP assay as follows.
MDCK (Kidney, Canine) strain NBL-2 purchased from American Type Culture Collection (CCL 34) were cultured under standard conditions. Three days prior to experimentation the cells were subcultured onto Corning 6.5 mm Transwell porous cell culture inserts at 1×10^5 cells per insert. Cells are grown to confluence in 3 days. The inserts were washed 5 times with phosphate buffered saline (PBS) immediately before testing. All reagents were made prior to experimentation, with the exception of the final dilutions with a saline solution, which were prepared on the day of the experiment.
The compositions I, II, III, and IV were diluted to 1:50 and 1:100 with Hanks Buffered Saline Solution (HBSS). For example, to prepare a 1:50 dilution of the test composition I, 1 part of the test composition I was mixed with 49 parts of HBSS. The diluted samples were placed on the ventral side of the insert (in duplicate) in direct contact with the cells for 15 minutes. Two inserts with HBSS were used as the negative control and inserts without cells were used as references of 100% leakage. After application of the test article, the inserts were washed with large amounts of PBS.
Sodium fluorescein was added directly to the cell monolayer and 1 ml of HBSS was placed in the well below. After 30 minutes of incubation at room temperature triplicate 200 μl samples were removed from the well and the optical density (OD) of the well fluid was determined. The experimental OD was then compared to the OD of 100% leakage reference (filter without cells), and provided a measure of irritation potential of the tested compositions.
The reductions in the irritation potential were calculated as the percentage of the absolute reduction relative to the control formulation (control is taken as 100%, and the percentages of reduction are calculated as 100% minus (observed leakage)/(observed leakage of control)×100%).

[2] = test system: Epiocular™ Tissue Model (OCL-200); assay: Epiocular Tissue Model (OCL-200) cell survival, MTT readout; type: cell-based; details: 5% ester added to 10% SLS in PBS
Method: The following example illustrates the discovery of the anti-irritation activity of certain alkoxylated esters. A test composition A and a control composition B were prepared. The test composition A contained 5% of Di-PPG-3-PEG-4 Myristyl Ether Adipate, an alkoxylated (tripropoxy-tetraethoxy) diester of tripropoxy-tetraethoxy myristyl alcohol and adipic acid, and 10% of sodium laurel sulfate (SLS), a known irritant, in Phosphate Buffered Saline (PBS) at pH 6.8–7.2. The control composition B contained 10% SLS in PBS at the same pH without the alkoxylated ester. A separate solution of PBS (without SLS and the ester) was used as a negative control solution. The testing was carried out on Epiocular™, Tissue Model (OCL-200), from MatTek Corporation. Epiocular™ inserts were equilibrated overnight in assay media. Test composition A and B, and the negative control solution were then separately placed in direct contact with the cells. For each test substance, the progress of cell death was measured at 1, 5, and 10 minutes. The negative control inserts were exposed to phosphate buffered saline (PBS) for 10 minutes. The inserts were washed with PBS, equilibrated in Eagle's Minimal Essential Medium (EMEM) prior to incubation in MTT (3-[4,5-Dimethylthiazol-2-yl]-2,5-diphenyltetrazolium bromide), and extracted in isopropyl alcohol overnight. […]

Row | Substance | anti-irritating activity [1] | anti-irritating activity, comparison between esters [1] | reduction in the irritation potential of the shampoo ([1]; 5% ester in J&J Baby Shampoo, Table 9) | effect on cell death [2]
1 | Di-PPG-2-PEG-10 Myristyl Adipate | show anti-irritating activity | greater anti-irritating activity than Di-PPG-2-PEG-10 Lauryl Adipate |  | 
2 | Di-PPG-2-PEG-10 Steareth Ether Adipate [Di-PPG-2-PEG-10 Steareth Adipate] |  | greater anti-irritating activity than Di-PPG-2-PEG-10 Myristyl Adipate |  | 
3 | Di-PPG-3-PEG-4 Cetyl Ether Adipate | show anti-irritating activity, with the magnitude of activity being substantially greater |  |  | 
4 | Di-PPG-3-PEG-4 Myristyl Ether Adipate |  |  | dramatic reduction in the irritation potential | substantially reduces cell death
